According to patent publication US10047087B2, “Substituted pyrazolo[1,5-A] pyridine as tropomyosin receptor kinase (TrK) inhibitors” (Dr. Reddy's Laboratories Ltd., priority 2011, dated 2018):

Molecular target: T1, TrkA kinase (Homo sapiens, UniProt P04629)
T1 construct: purchased Upstate, USA
Assay: In vitro TrkA inhibitory activity using TR-FRET assay
Type: biochemical
Settings: 5 ng TrkA, 500 μM ATP, both bounds given in nm, read-out: TrkA inhibitory activity in-vitro IC50
Procedure: Determination of In Vitro TrkA Inhibitory Activity Using TR-FRET Assay
Compounds were screened in the TR-FRET assay with TrkA kinase. 5 ng of TrkA [Upstate, USA] kinase was used for assay. The compound was incubated with the kinase for 30 minutes at 20-35° C. After the incubation, substrate mix [40 nM Ultra light poly GT (Perkin Elmer, USA) and 500 μM ATP] was added. The above reaction was stopped by the addition of 40 mM EDTA after 30 minutes. The Eu-labelled antiphospho-tyrosine antibody [Perkin Elmer, USA] was added at 0.5 nM and the fluorescence emission at 615 nm/665 nm [excitation at 340 nm] was measured. The compounds were initially screened at 100 nM, 1 μM and 10 μM concentrations. The potent compounds with >25% inhibition at 1 μM of TrkA were taken for the full dose response studies. The final DMSO concentration in the assay was […]. For IC50 determination, ⅓^rd serial dilution was made from the 20 mM DMSO stock solution. 2 μl of these were transferred to the test wells containing 20 μl reaction mixture [Total reaction volume 22 μl]. The fluorescence was measured in Perkin Elmer Wallac 1420 Multilabel Counter Victor 3. The IC50 was determined by fitting the dose response data to a sigmoidal curve fitting equation using GraphPad Prism software version 5.

T1 sequence (P04629 33-796): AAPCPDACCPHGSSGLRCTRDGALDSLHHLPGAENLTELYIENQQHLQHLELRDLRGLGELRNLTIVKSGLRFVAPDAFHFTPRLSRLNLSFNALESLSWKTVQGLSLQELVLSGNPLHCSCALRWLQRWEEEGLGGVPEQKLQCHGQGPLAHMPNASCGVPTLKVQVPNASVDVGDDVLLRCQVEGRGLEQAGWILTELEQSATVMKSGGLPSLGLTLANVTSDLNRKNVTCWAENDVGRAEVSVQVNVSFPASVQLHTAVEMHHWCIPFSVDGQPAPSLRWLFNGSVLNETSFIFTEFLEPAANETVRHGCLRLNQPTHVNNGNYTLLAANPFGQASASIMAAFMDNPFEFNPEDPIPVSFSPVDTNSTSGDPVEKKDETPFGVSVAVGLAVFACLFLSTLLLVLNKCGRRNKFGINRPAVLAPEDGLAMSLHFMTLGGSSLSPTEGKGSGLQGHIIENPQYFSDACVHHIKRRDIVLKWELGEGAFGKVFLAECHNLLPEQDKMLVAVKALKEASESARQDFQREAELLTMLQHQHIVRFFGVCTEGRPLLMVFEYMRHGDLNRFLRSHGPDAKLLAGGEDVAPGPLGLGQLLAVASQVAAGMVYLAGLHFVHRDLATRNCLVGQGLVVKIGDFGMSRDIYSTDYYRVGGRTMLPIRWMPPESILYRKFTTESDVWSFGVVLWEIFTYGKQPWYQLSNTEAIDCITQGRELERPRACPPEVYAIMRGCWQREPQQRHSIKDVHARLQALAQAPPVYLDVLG

| IC50 | SMILES |
| --- | --- |
| 0.1 to 0.5 µM | O=C(NS(=O)(=O)c1ccc(-n2cncn2)nc1)c1cnn2ccc(N3CCC[C@@H]3c3cc(F)ccc3F)cc12 [Example 27, (R)-N-((6-(1H-1,2,4-triazol-1-yl)pyridin-3-yl)sulfonyl)-5-(2-(2,5-difluorophenyl)pyrrolidin-1-yl)pyrazolo[1,5-a]pyridine-3-carboxamide] |
| 0.1 to 0.5 µM | CC(C)(C)S(=O)(=O)NC(=O)c1cnn2ccc(N3CCC[C@@H]3c3cc(F)ccc3-c3ccc(F)cc3)cc12 [Example 54, (R)-N-(tert-butylsulfonyl)-5-(2-(4,4′-difluoro-[1,1′-biphenyl]-2-yl)pyrrolidin-l-yl)pyrazolo[1,5-a]pyridine-3-carboxamide] |
| 0.1 to 0.5 µM | CC(C)(C)S(=O)(=O)NC(=O)c1cnn2ccc(N3CCC[C@@H]3c3cc(F)ccc3F)c(F)c12 [Example 61, (R)-N-(tert-butylsulfonyl)-5-(2-(2,5-difluorophenyl)pyrrolidin-1-yl)-4-fluoro pyrazolo[1,5-a] pyridine-3-carboxamide] |
| 0.1 to 0.5 µM | CS(=O)(=O)NC(=O)c1cnn2ccc(N3CCC[C@@H]3c3cc(F)ccc3F)cc12 [Example 6, (R)-5-(2-(2,5-difluorophenyl)pyrrolidin-1-yl)-N-(methylsulfonyl)pyrazolo[1,5-a]pyridine-3-carboxamide] |
| 0.1 to 0.5 µM | Cc1noc(C)c1S(=O)(=O)NC(=O)c1cnn2ccc(N3CCC[C@@H]3c3cc(F)ccc3F)cc12 [Example 11, (R)-5-(2-(2,5-difluorophenyl)pyrrolidin-1-yl)-N-((3,5-dimethylisoxazol-4-yl)sulfonyl) pyrazolo[1,5-a]pyridine-3-carboxamide] |

Same assay, conditions: 5 ng TrkA, 500 μM ATP, lower bound in nm [sic], upper bound in μM, read-out: TrkA inhibitory activity in-vitro IC50

| IC50 | SMILES |
| --- | --- |
| 0.5 to 1 µM | CC(C)(C)S(=O)(=O)NC(=O)c1cnn2ccc(N3C[C@H](F)C[C@@H]3c3cc(F)ccc3F)cc12 [Example 58, N-(tert-butylsulfonyl)-5-((2R,4R)-2-(2,5-difluorophenyl)-4-fluoropyrrolidin-1-yl) pyrazolo[1,5-a]pyridine-3-carboxamide] |
| 0.5 to 1 µM | COCCOc1cc(F)cc([C@H]2CCCN2c2ccn3ncc(C(=O)NS(=O)(=O)C(C)(C)C)c3c2)c1 [Example 67, (R)-N-(tert-butylsulfonyl)-5-(2-(3-fluoro-5-(2-methoxyethoxy)phenyl)pyrrolidin-1-yl) pyrazolo[1,5-a]pyridine-3-carboxamide] |
| 0.5 to 1 µM | CC(C)(C)S(=O)(=O)NC(=O)c1cnn2ccc(N3CCC[C@@H]3c3cc(F)cc(OC4CCOC4)c3)cc12 (stereo partly drawn) [Example 68, N-(tert-butylsulfonyl)-5-((2R)-2-(3-fluoro-5-((tetrahydrofuran-3-yl)oxy)phenyl)pyrrolidin-1-yl)pyrazolo[1,5-a]pyridine-3-carboxamide] |
| 0.5 to 1 µM | O=C(NS(=O)(=O)c1ccc(F)cc1)c1cnn2ccc(N3CCC[C@@H]3c3cc(F)cc(F)c3)cc12 [Example 69, (R)-5-(2-(3,5-difluorophenyl)pyrrolidin-1-yl)-N-((4-fluorophenyl)sulfonyl)pyrazolo[1,5-a]pyridine-3-carboxamide] |

Same assay, conditions: 5 ng TrkA, 500 μM ATP, read-out: TrkA inhibition in-vitro IC50

| IC50 | SMILES |
| --- | --- |
| 0.05 to 0.1 µM | CC(C)(C)S(=O)(=O)NC(=O)c1cnn2ccc(N3CCC[C@@H]3c3cncc(F)c3)cc12 [Example 44, (R)-N-(tert-butylsulfonyl)-5-(2-(5-fluoropyridin-3-yl)pyrrolidin-1-yl)pyrazolo[1,5-a] pyridine-3-carboxamide] |
| ≤ 0.05 µM | CCN(C)S(=O)(=O)NC(=O)c1cnn2ccc(N3CCC[C@@H]3c3cc(F)ccc3OC3CCOC3)cc12 (stereo partly drawn) [Example 139, Sodium (N-ethyl-N-methylsulfamoyl)(5-((2R)-2-(5-fluoro-2-((tetrahydrofuran-3-yl)oxy)phenyl)pyrrolidin-1-yl)pyrazolo[1,5-a]pyridine-3-carbonyl)amide] |
| 0.05 to 0.1 µM | CC(C)(C)S(=O)(=O)NC(=O)c1cnn2ccc(N3CCC[C@@H]3c3cc(F)ccc3Cl)cc12 [Example 47, (R)-N-(tert-butylsulfonyl)-5-(2-(2-chloro-5-fluorophenyl)pyrrolidin-1-yl)pyrazolo[1,5-a]pyridine-3-carboxamide] |
| ≤ 0.05 µM | O=C(NS(=O)(=O)N1CCCC1)c1cnn2ccc(N3CCC[C@@H]3c3cc(F)ccc3F)cc12 [Example 85, (R)-5-(2-(2,5-difluorophenyl)pyrrolidin-1-yl)-N-(pyrrolidin-1-ylsulfonyl)pyrazolo[1,5-a]pyridine-3-carboxamide] |

Same assay, conditions: 5 ng TrkA, 500 μM ATP, read-out: TrkA inhibitory activity in-vitro IC50

| IC50 | SMILES |
| --- | --- |
| 1 to 10 µM | CC(C)(C)S(=O)(=O)NC(=O)c1cnn2ccc(N3CC(F)(F)CC3c3cc(F)ccc3F)cc12 (single isomer, unassigned) [Example 55] |
| 1 to 10 µM | Cn1cnc(S(=O)(=O)NC(=O)c2cnn3ccc(N4CCC[C@@H]4c4cc(F)ccc4F)cc23)c1 [Example 18, (R)-5-(2-(2,5-difluorophenyl)pyrrolidin-1-yl)-N-((1-methyl-1H-imidazol-4-yl)sulfonyl) pyrazolo[1,5-a]pyridine-3-carboxamide] |

Tested on: not listed separately
Assay: Metabolic stability using Human Liver Microsomes (HLM)
Type: in vitro ADME
Settings: pooled human liver microsomes, compound 1 μM, 0.3 mg/ml microsomal protein, 1 mM NADPH
Procedure: Stability Protocol: Metabolic Stability Using Rat Liver Microsomes (RLM) and Human Liver Microsomes (HLM).
This assay was performed using pooled male rat liver microsomes (In-house prepared as per SOP), Pooled Human liver microsomes (XENOTECH; Batch No— H0630-1110189)). The 100 μl reaction contains the compounds at 1 μM, 0.3 mg/ml microsomal protein and both the co-factors (1 mM NADPH) in buffer and the mixture was incubated at different time points (0, 15, 30, 45, 60, & 90 minutes). The reaction was stopped by the addition of equal volume of acetonitrile containing internal standard (Telmesartin). The precipitated protein was removed by centrifugation and the supernatant were analyzed LC/MS-MS method. The percent parent compound remaining was quantified by analysis using following formula (% parent compound remaining=(peak area at Time x/peak area at T0)×100. The intrinsic clearance was calculated using the following formula. CLint,app: (0.693/in vitro t½)(incubation volume/mg of microsomal protein)(45 mg microsomal protein/gram of liver)(20^a g of liver/kg body weight) • a: 20 and 45 g of liver/kg of body weight were used for human and rat, respectively (Lu C et al., DMD, 2006). Bio-analysis: It was performed in Multiple Reaction Monitoring mode (negative mode) using Applied Biosystems API 4000 coupled to Agilent Technologies 1100 series HPLC on a reverse phase column (Zorbax Eclipse XDB C18, 50×4.6 mm, 5 μm). Celecoxib was used as internal standard both in in-vitro and in-vivo experiments. Mobile phase used 0.05% […] water and acetonitrile (10:90) with a flow rate of 0.6 ml/minute. The injection volume was kept as 10 μl.

| SMILES | half-life at 1 μM |
| --- | --- |
| COc1ccc(F)cc1[C@H]1CCCN1c1ccn2ncc(C(=O)NS(=O)(=O)C(C)(C)C)c2c1 [Example 42, (R)-N-(tert-butylsulfonyl)-5-(2-(5-fluoro-2-methoxyphenyl)pyrrolidin-1-yl)pyrazolo[1,5-a] pyridine-3-carboxamide] | > 1.33 h |
| NS(=O)(=O)NC(=O)c1cnn2ccc(N3C[C@@H](F)C[C@@H]3c3cccc(F)c3)c(F)c12 [Example 107, 4-fluoro-5-((2R,4S)-4-fluoro-2-(3-fluorophenyl)pyrrolidin-1-yl)-N-sulfamoylpyrazolo[1,5-a]pyridine-3-carboxamide] | > 1.33 h |
| CCN(C)S(=O)(=O)NC(=O)c1cnn2ccc(N3C[C@@H](F)C[C@@H]3c3cccc(F)c3)c(F)c12 [Example 102, N-(N-ethyl-N-methylsulfamoyl)-4-fluoro-5-((2R,4S)-4-fluoro-2-(3-fluorophenyl)pyrrolidin-1-yl)pyrazolo[1,5-a]pyridine-3-carboxamide] | > 1.33 h |
| CCN(C)S(=O)(=O)NC(=O)c1cnn2ccc(N3CCCC3c3cc(F)cc4c3OCCCO4)cc12 (single isomer, unassigned) [Example 96, N-(N-ethyl-N-methylsulfamoyl)-5-(2-(8-fluoro-3,4-dihydro-2H-benzo[b][1,4]dioxepin-6-yl)pyrrolidin-1-yl)pyrazolo[1,5-a]pyridine-3-carboxamide] | > 1.33 h |
| CC(C)(C)S(=O)(=O)NC(=O)c1cnn2ccc(N3CCC[C@@H]3c3cc(F)ccc3OC3CCOCC3)cc12 [Example 124, (R)-N-(tert-butylsulfonyl)-5-(2-(5-fluoro-2-((tetrahydro-2H-pyran-4-yl)oxy)phenyl)pyrrolidin-1-yl)pyrazolo[1,5-a]pyridine-3-carboxamide] | > 1.33 h |
| CC(C)(C)S(=O)(=O)NC(=O)c1cnn2ccc(N3C[C@@H](F)C[C@@H]3c3cccc(F)c3)c(F)c12 [Example 121, N-(tert-butylsulfonyl)-4-fluoro-5-((2R,4S)-4-fluoro-2-(3-fluorophenyl)pyrrolidin-1-yl)pyrazolo[1,5-a]pyridine-3-carboxamide] | > 1.33 h |
| CC(C)S(=O)(=O)NC(=O)c1cnn2ccc(N3C[C@@H](F)C[C@@H]3c3cccc(F)c3)c(F)c12 [Example 122, 4-fluoro-5-((2R,4S)-4-fluoro-2-(3-fluorophenyl)pyrrolidin-1-yl)-N-(isopropylsulfonyl) pyrazolo[1,5-a]pyridine-3-carboxamide] | > 1.33 h |

Second part, the molecule after the results:

| half-life at 1 μM | SMILES |
| --- | --- |
| > 1.33 h | Cc1ccccc1S(=O)(=O)NC(=O)c1cnn2ccc(N3CCC[C@@H]3c3cc(F)ccc3F)cc12 [Example 39, (R)-5-(2-(2,5-difluorophenyl)pyrrolidin-1-yl)-N-(o-tolylsulfonyl)pyrazolo[1,5-a]pyridine-3-carboxamide] |
| > 1.33 h | CC1(S(=O)(=O)NC(=O)c2cnn3ccc(N4CCC[C@@H]4c4cc(F)ccc4F)cc23)CC1 [Example 38, (R)-5-(2-(2,5-difluorophenyl)pyrrolidin-1-yl)-N-((1-methylcyclopropyl)sulfonyl)pyrazolo[1,5-a] pyridine-3-carboxamide] |
